Patent publication US20210215714A1, “COMPLEMENT ALTERNATIVE PATHWAY-ASSOCIATED NEPHROPATHY BIOMARKERS” (Achillion Pharmaceuticals, Inc., priority 2018, published 2021)
Entries after “also recorded” stand apart in the source; their conditions may differ.

Tested on: Ba
Test: Phase 2a study: urinary Ba (MicroVue Ba Enzyme Immunoassay)
Format: in vivo, human
Conditions: for Urine Ba / Ba/ALB / Ba/Cr: 200 mg TID; for Ba/ALB GEOMEAN / Ba/ALB MEAN / Ba/Cr GEOMEAN / Ba/Cr MEAN / Urine Ba MEAN / Urine Ba GEOMEAN: patients A-F

`CC(=O)c1nn(CC(=O)N2C[C@H](F)C[C@H]2C(=O)Nc2cccc(Br)n2)c2ccc(-c3cnc(C)nc3)cc12` [Compound 1, (2S,4R)-1-(2-(3-acetyl-5-(2-methylpyrimidin-5-yl)-1H-indazol-1-yl)acetyl)-N-(6-bromopyridin-2-yl)-4-fluoropyrrolidine-2-carboxamide] was tested, and the “Urine Ba” value (Patient D, Day 21 Taper) was 18.6 ng/mL, the Ba/ALB (Patient D, Follow-Up Day 24) was 14.9 ng/mg and the Ba/Cr (Patient D, Follow-Up Day 24) was 4.2 µg/mmol. For the same compound, the “Urine Ba” value (Patient D, Follow-Up Day 24) was 28.7 ng/mL, the Ba/ALB (Patient D, Follow-Up Day 28) was 10.8 ng/mg and the Ba/Cr (Patient D, Follow-Up Day 28) was 6.2 µg/mmol. For the same compound, the “Urine Ba” value (Patient D, Follow-Up Day 28) was 30.0 ng/mL, the Ba/ALB (Patient D, Follow-Up Day 49) was 3.8 ng/mg and the Ba/Cr (Patient D, Follow-Up Day 49) was 2.4 µg/mmol. For the same compound, the “Urine Ba” value (Patient D, Follow-Up Day 49) was 9.4 ng/mL, the Ba/ALB (Patient D, Screen) was 19.2 ng/mg and the Ba/Cr (Patient D, Screen) was 11.1 µg/mmol. The “Urine Ba” value (Patient D, Screen) was 84.4 ng/mL, the Ba/ALB (Patient E, Day 1/0 Hour) was 33.5 ng/mg and the Ba/Cr (Patient E, Day 1/0 Hour) was 14.2 µg/mmol. For the same compound, the “Urine Ba” value (Patient E, Day 1/0 Hour) was 252 ng/mL, the Ba/ALB (Patient E, Day 4) was 14.7 ng/mg and the Ba/Cr (Patient E, Day 4) was 6.2 µg/mmol. For the same compound, the “Urine Ba” value (Patient E, Day 4) was 129 ng/mL, the Ba/ALB (Patient E, Day 7/0 Hour) was 17.3 ng/mg and the Ba/Cr (Patient E, Day 7/0 Hour) was 9.2 µg/mmol. For the same compound, the “Urine Ba” value (Patient E, Day 7/0 Hour) was 142 ng/mL, the Ba/ALB (Patient E, Day 10) was 12.8 ng/mg and the Ba/Cr (Patient E, Day 10) was 8.0 µg/mmol. The “Urine Ba” value (Patient E, Day 10) was 106 ng/mL, the Ba/ALB (Patient E, Day 14) was 6.9 ng/mg and the Ba/Cr (Patient E, Day 14) was 1.8 µg/mmol. The “Urine Ba” value (Patient E, Day 14) was 41 ng/mL, the Ba/ALB (Patient E, Day 15 Taper) was 3.6 ng/mg and the Ba/Cr (Patient E, Day 15 Taper) was 1.2 µg/mmol. For the same compound, the “Urine Ba” value (Patient E, Day 15 Taper) was 11 ng/mL, the Ba/ALB (Patient E, Day 16 Taper) was 7.2 ng/mg and the Ba/Cr (Patient E, Day 16 Taper) was 2.0 µg/mmol. For the same compound, the “Urine Ba” value (Patient E, Day 16 Taper) was 20 ng/mL, the Ba/ALB (Patient E, Day 17 Taper) was 12.7 ng/mg and the Ba/Cr (Patient E, Day 17 Taper) was 6.0 µg/mmol. The “Urine Ba” value (Patient E, Day 17 Taper) was 47 ng/mL, the Ba/ALB (Patient E, Day 21 Taper) was 21.6 ng/mg and the Ba/Cr (Patient E, Day 21 Taper) was 5.5 µg/mmol. For the same compound, the “Urine Ba” value (Patient E, Day 21 Taper) was 42 ng/mL, the Ba/ALB (Patient E, Follow-Up Day 24) was 41.2 ng/mg and the Ba/Cr (Patient E, Follow-Up Day 24) was 12.5 µg/mmol. For the same compound, the “Urine Ba” value (Patient E, Follow-Up Day 24) was 156 ng/mL, the Ba/ALB (Patient E, Follow-Up Day 28) was 46.1 ng/mg and the Ba/Cr (Patient E, Follow-Up Day 28) was 14.1 µg/mmol. The “Urine Ba” value (Patient E, Follow-Up Day 28) was 234 ng/mL, the Ba/ALB (Patient E, Follow-Up Day 49) was 40.0 ng/mg and the Ba/Cr (Patient E, Follow-Up Day 49) was 13.1 µg/mmol. For the same compound, the “Urine Ba” value (Patient E, Follow-Up Day 49) was 207 ng/mL, the Ba/ALB (Patient F, Day 1/0 Hour) was 25.9 ng/mg and the Ba/Cr (Patient F, Day 1/0 Hour) was 7.6 µg/mmol. The “Urine Ba” value (Patient F, Day 1/0 Hour) was 74.9 ng/mL, the Ba/ALB (Patient F, Day 4) was 7.6 ng/mg and the Ba/Cr (Patient F, Day 4) was 1.2 µg/mmol. For the same compound, the “Urine Ba” value (Patient F, Day 4) was 5.7 ng/mL, the Ba/ALB (Patient F, Day 7/0 Hour) was 5.7 ng/mg and the Ba/Cr (Patient F, Day 7/0 Hour) was 0.5 µg/mmol. For the same compound, the “Urine Ba” value (Patient F, Day 7/0 Hour) was 2.1 ng/mL, the “Urine Ba” value (Patient F, Day 10) was 2.1 ng/mL and the Ba/ALB (Patient F, Day 14) was 5.8 ng/mg. The Ba/Cr (Patient F, Day 14) was 1.1 µg/mmol, the “Urine Ba” value (Patient F, Day 14) was 9.8 ng/mL and the Ba/ALB (Patient F, Day 15 Taper) was 0.6 ng/mg. For the same compound, the Ba/Cr (Patient F, Day 15 Taper) was 0.5 µg/mmol, the “Urine Ba” value (Patient F, Day 15 Taper) was 2.8 ng/mL and the Ba/ALB (Patient F, Day 16 Taper) was 2.6 ng/mg. For the same compound, the Ba/Cr (Patient F, Day 16 Taper) was 0.6 µg/mmol, the “Urine Ba” value (Patient F, Day 16 Taper) was 2.2 ng/mL and the Ba/ALB (Patient F, Day 17 Taper) was 1.6 ng/mg. The Ba/Cr (Patient F, Day 17 Taper) was 0.7 µg/mmol, the “Urine Ba” value (Patient F, Day 17 Taper) was 6.9 ng/mL and the Ba/ALB (Patient F, Day 21 Taper) was 1.5 ng/mg. For the same compound, the Ba/Cr (Patient F, Day 21 Taper) was 0.5 µg/mmol, the “Urine Ba” value (Patient F, Day 21 Taper) was 6.6 ng/mL and the Ba/ALB (Patient F, Follow-Up Day 24) was 1.5 ng/mg. For the same compound, the Ba/Cr (Patient F, Follow-Up Day 24) was 0.4 µg/mmol, the “Urine Ba” value (Patient F, Follow-Up Day 24) was 2.2 ng/mL and the Ba/ALB (Patient F, Follow-Up Day 28) was 2.5 ng/mg. The Ba/Cr (Patient F, Follow-Up Day 28) was 0.6 µg/mmol, the “Urine Ba” value (Patient F, Follow-Up Day 28) was 2.8 ng/mL and the Ba/Cr (Patient F, Follow-Up Day 49) was 8.2 µg/mmol. The “Urine Ba” value (Patient F, Follow-Up Day 49) was 44.4 ng/mL, the “Ba/ALB GEOMEAN” value (Day 1/0 Hour) was 22.6 ng/mg and the “Ba/ALB MEAN” value (Day 1/0 Hour) was 53.4 ng/mg. The “Ba/Cr GEOMEAN” value (Day 1/0 Hour) was 5.7 µg/mmol, the “Ba/Cr MEAN” value (Day 1/0 Hour) was 26.7 µg/mmol and the “Urine Ba MEAN” value (Day 1/0 Hour) was 197 ng/mL. For the same compound, the “Ba/ALB GEOMEAN” value (Day 4) was 7.8 ng/mg, the “Ba/ALB MEAN” value (Day 4) was 13.8 ng/mg and the “Ba/Cr GEOMEAN” value (Day 4) was 1.4 µg/mmol. For the same compound, the “Ba/Cr MEAN” value (Day 4) was 3.8 µg/mmol, the “Urine Ba GEOMEAN” value (Day 4) was 9.1 ng/mL and the “Urine Ba MEAN” value (Day 4) was 52 ng/mL. The “Ba/ALB GEOMEAN” value (Day 7/0 Hour) was 8.9 ng/mg, the “Ba/ALB MEAN” value (Day 7/0 Hour) was 13.4 ng/mg and the “Ba/Cr GEOMEAN” value (Day 7/0 Hour) was 1.5 µg/mmol. For the same compound, the “Ba/Cr MEAN” value (Day 7/0 Hour) was 4.0 µg/mmol, the “Urine Ba GEOMEAN” value (Day 7/0 Hour) was 7.9 ng/mL and the “Urine Ba MEAN” value (Day 7/0 Hour) was 51 ng/mL. The “Urine Ba GEOMEAN” value (Day 10) was 5.0 ng/mL, the “Urine Ba MEAN” value (Day 10) was 28 ng/mL and the “Ba/ALB GEOMEAN” value (Day 15 Taper) was 4.9 ng/mg. For the same compound, the “Ba/ALB MEAN” value (Day 15 Taper) was 13.4 ng/mg, the “Ba/Cr GEOMEAN” value (Day 15 Taper) was 1.2 µg/mmol and the “Ba/Cr MEAN” value (Day 15 Taper) was 4.1 µg/mmol. The “Urine Ba GEOMEAN” value (Day 15 Taper) was 6.8 ng/mL, the “Urine Ba MEAN” value (Day 15 Taper) was 41 ng/mL and the “Ba/ALB GEOMEAN” value (Day 17 Taper) was 6.9 ng/mg. The “Ba/ALB MEAN” value (Day 17 Taper) was 15.4 ng/mg, the “Ba/Cr GEOMEAN” value (Day 17 Taper) was 1.6 µg/mmol and the “Ba/Cr MEAN” value (Day 17 Taper) was 4.2 µg/mmol. The “Urine Ba GEOMEAN” value (Day 17 Taper) was 9.5 ng/mL, the “Urine Ba MEAN” value (Day 17 Taper) was 41 ng/mL and the “Ba/ALB MEAN” value (Day 21 Taper) was 24.5 ng/mg. For the same compound, the “Ba/Cr GEOMEAN” value (Day 21 Taper) was 2.6 µg/mmol, the “Ba/Cr MEAN” value (Day 21 Taper) was 6.0 µg/mmol and the “Urine Ba GEOMEAN” value (Day 21 Taper) was 17.2 ng/mL. The “Urine Ba MEAN” value (Day 21 Taper) was 46 ng/mL, the “Ba/ALB MEAN” value (Follow-Up Day 24) was 38.5 ng/mg and the “Ba/Cr GEOMEAN” value (Follow-Up Day 24) was 3.0 µg/mmol. The “Ba/Cr MEAN” value (Follow-Up Day 24) was 11.6 µg/mmol, the “Urine Ba GEOMEAN” value (Follow-Up Day 24) was 18.4 ng/mL and the “Urine Ba MEAN” value (Follow-Up Day 24) was 92 ng/mL. For the same compound, the “Ba/ALB GEOMEAN” value (Follow-Up Day 28) was 17.4 ng/mg, the “Ba/ALB MEAN” value (Follow-Up Day 28) was 34.3 ng/mg and the “Ba/Cr GEOMEAN” value (Follow-Up Day 28) was 3.8 µg/mmol. The “Ba/Cr MEAN” value (Follow-Up Day 28) was 9.3 µg/mmol, the “Urine Ba GEOMEAN” value (Follow-Up Day 28) was 24.5 ng/mL and the “Urine Ba MEAN” value (Follow-Up Day 28) was 90 ng/mL. For the same compound, the “Ba/ALB GEOMEAN” value (Follow-Up Day 49) was 20.7 ng/mg, the “Ba/ALB MEAN” value (Follow-Up Day 49) was 143.0 ng/mg and the “Ba/Cr GEOMEAN” value (Follow-Up Day 49) was 3.9 µg/mmol. The “Ba/Cr MEAN” value (Follow-Up Day 49) was 22.6 µg/mmol, the “Urine Ba GEOMEAN” value (Follow-Up Day 49) was 27.2 ng/mL and the “Urine Ba MEAN” value (Follow-Up Day 49) was 334 ng/mL. For the same compound, the “Urinary Ba levels” value (two-week treatment) was “reduced significantly; also recorded: reduced in all patients” and the “Urinary Ba levels normalized to urinary creatinine or albumin” value (two-week treatment) was “reduced significantly”.
